Experimental data as given in patent US20090068290A1, “BIFEPRUNOX DOSES FOR TREATING SCHIZOPHRENIA” (priority 2006, published 2009).

Legend:
[1] = system: adult subjects with schizophrenia; assay: BPRS total score, Clinical Study Three; assay type: in vivo, human
From the text: SECONDARY OBJECTIVES To assess the efficacy of bifeprunox in treating schizophrenia using the Positive Symptom sub-scale score of the PANSS, the Negative Symptom sub-scale score of the PANSS, the General Psychopathology sub-scale of the PANSS, Brief Psychiatric Rating Scale (BPRS) total score derived from the PANSS, BPRS psychosis score derived from the PANSS, the Clinical Global Impression Severity of Illness score (CGI-S), the Clinical Global Impression Improvement score (CGI-I), CGI-I responder rate, PANSS responder rate based on the PANSS total score, Calgary Depression Scale for Schizophrenia (CDSS), and Subject Satisfaction rating.
There were four treatment arms in this study, approximately 144 subjects per arm. […] After completing the Single-Blind Placebo Lead-in Period of at least three days, bifeprunox-treated subjects were titrated from 0.25 mg up to 20 mg/day or 30 mg/day according to a standardized titration scheme over a seven- or eight-day period, respectively. When the assigned dose was reached, subjects were maintained at that dose for the remainder of the six week treatment period. […] Subjects were hospitalized (if not already inpatients) after eligibility for study entry was verified, starting from the Screening Visit until at least 10 days after Baseline. Subjects could be hospitalized longer than 10 days if considered medically necessary by the Investigator. Rating scale assessments for efficacy and abnormal movement disorders were done weekly except for Week 5. […] Subject satisfaction with study medication was assessed at Week 6.

[2] = system: adult subjects with schizophrenia; assay: Adverse events (TEAE, SAE, special interest, discontinuation, EPS-related TEAE), Clinical Study Three; conditions: for safety and tolerability: bifeprunox 20 mg and 30 mg, 6 weeks
Experimental: There were four treatment arms in this study, approximately 144 subjects per arm. […] After completing the Single-Blind Placebo Lead-in Period of at least three days, bifeprunox-treated subjects were titrated from 0.25 mg up to 20 mg/day or 30 mg/day according to a standardized titration scheme over a seven- or eight-day period, respectively. When the assigned dose was reached, subjects were maintained at that dose for the remainder of the six week treatment period. […] Subjects were hospitalized (if not already inpatients) after eligibility for study entry was verified, starting from the Screening Visit until at least 10 days after Baseline. Subjects could be hospitalized longer than 10 days if considered medically necessary by the Investigator. Rating scale assessments for efficacy and abnormal movement disorders were done weekly except for Week 5. Safety assessments were performed at Screening, during treatment and at the end of the study. Subject satisfaction with study medication was assessed at Week 6. Samples of whole blood were obtained at Weeks 2, 4, and 6 for determination of bifeprunox in plasma.
EPS were assessed using treatment-emergent adverse events such as akathisia, dyskinesia, parkinsoniam, etc. and/or formal rating scales such as SAS, BAS, and/or AIMS.

[3] = Bifeprunox 30 mg, Week 6/Endpoint, LOCF, ITT population

SMILES: O=c1[nH]c2cccc(N3CCN(Cc4cccc(-c5ccccc5)c4)CC3)c2o1 [Bifeprunox, 7-[4-([1,1′-biphenyl]-3-ylmethyl)-1-piperazinyl]-2(3H)-benzoxazolone]
- Change from Baseline in BPRS Total Score, Mean (SD) [1, 3]: −7.9 (12.0)
- Change from Baseline in BPRS Total Score, Median [1, 3]: −9
- Change from Baseline in BPRS Total Score, Trt Effect (bifeprunox—placebo) [1, 3]: −1.1
- mean change (SD) from Baseline to Endpoint in BPRS total score ([1]; bifeprunox 20 mg, LOCF, ITT): −8.5 (11.9)
- BPRS total score, treatment effect (bifeprunox—placebo) ([1]; bifeprunox 30 mg, Endpoint LOCF): −1.1
- AKATHISIA, % ([2]; BX 20 mg): 3%
- CONVULSION, % ([2]; BX 20 mg): 1%
- DIZZINESS, % ([2]; BX 20 mg): 8%
- DYSKINESIA, % ([2]; BX 20 mg): 1%
- EXTRAPYRAMIDAL DISORDER, % ([2]; BX 20 mg): 3%
- HEADACHE, % ([2]; BX 20 mg): 19%
- LOSS OF CONSCIOUSNESS, % ([2]; BX 20 mg): 1 (<1%)
- MYALGIA, % ([2]; BX 20 mg): 1 (<1%)
- NECK PAIN, % ([2]; BX 20 mg): 1%
- NERVOUS SYSTEM DISORDERS, % ([2]; BX 20 mg): 38%
- PAIN IN EXTREMITY, % ([2]; BX 20 mg): 1 (<1%)
- SEDATION, % ([2]; BX 20 mg): 5%
- SINUS HEADACHE, % ([2]; BX 20 mg): 1 (<1%)
- SOMNOLENCE, % ([2]; BX 20 mg): 3%
- TARDIVE DYSKINESIA, % ([2]; BX 20 mg): 1 (<1%)
- TREMOR, % ([2]; BX 20 mg): 1%
- AKATHISIA, % ([2]; BX 40 mg): 3%
- CYST, % ([2]; BX 40 mg): 1 (<1%)
- DIZZINESS, % ([2]; BX 40 mg): 10%
- DYSKINESIA, % ([2]; BX 40 mg): 1%
- EXTRAPYRAMIDAL DISORDER, % ([2]; BX 40 mg): 1 (<1%)
- HEADACHE, % ([2]; BX 40 mg): 19%
- MUSCULOSKELETAL STIFFNESS, % ([2]; BX 40 mg): 1 (<1%)
- MYALGIA, % ([2]; BX 40 mg): 1%
- NEOPLASMS BENIGN, MALIGNANT AND UNSPECIFIED (INCL CYSTS AND POLYPS), % ([2]; BX 40 mg): 1 (<1%)
- NERVOUS SYSTEM DISORDERS, % ([2]; BX 40 mg): 37%
- NEUROLOGICAL SYMPTOM, % ([2]; BX 40 mg): 1 (<1%)
- PAIN IN JAW, % ([2]; BX 40 mg): 1 (<1%)
- PARAESTHESIA, % ([2]; BX 40 mg): < 1%
- SEDATION, % ([2]; BX 40 mg): 7%
- SOMNOLENCE, % ([2]; BX 40 mg): 3%
- SYNCOPE VASOVAGAL, % ([2]; BX 40 mg): 1%
- TREMOR, % ([2]; BX 40 mg): 3%
- incidence of dizziness (TEAE of special interest) ([2]; Bifeprunox 30 mg): 10%
- orthostatic hypotension (special interest TEAE) ([2]; Bifeprunox 30 mg): three subjects
- subjects with at least one AE that led to study termination ([2]; Bifeprunox 30 mg): 7%
- subjects with at least one SAE ([2]; Bifeprunox 30 mg): 8%
- subjects with at least one TEAE ([2]; Bifeprunox 30 mg): 77%
- subjects with at least one special interest TEAE ([2]; Bifeprunox 30 mg): 13%
- syncope vasovagal (special interest TEAE) ([2]; Bifeprunox 30 mg): two subjects
- incidence of dizziness (TEAE of special interest) ([2]; bifeprunox 20 mg): 8%
- subjects with at least one AE that led to study termination ([2]; bifeprunox 20 mg): 8%
- subjects with at least one SAE ([2]; bifeprunox 20 mg): 10%
- subjects with at least one TEAE ([2]; bifeprunox 20 mg): 82%
- subjects with at least one special interest TEAE ([2]; bifeprunox 20 mg): 11%
- safety and tolerability [2]: well tolerated at both dose levels
- safety and tolerability ([2]; listed as bifeprunox): safe and well tolerated
- subjects who discontinued study medication due to an AE ([2]; bifeprunox groups (20, 30 mg), each): 8%
